Columns and labels:
[1] = target: T1, prostanoide receptor subtype (human EP4) (Homo sapiens, UniProt P35408); test: Binding assay using expression of prostanoide receptor subtype ([3H]-PGE2, membrane fraction of transfected COS-7 cells); settings: test compound 1.0 × 10^−7M; [3H]-PGE2 binding, COS-7 membrane, human EP4, 1 hour at 30° C.
T1 construct: expressed in transfected cells; host or cells: COS-7 cells (membrane fraction)
Method: Binding Assay Using Expression of Prostanoide Receptor Subtype
The membrane fraction was prepared using COS-7 cells transfected prostanoide receptor subtype (human EP4).
The standard assay mixture contained membrane fraction, [^3H]-PGE2 in final volume of 0.25 ml was incubated for 1 hour at 30° C. The reaction was terminated by that the mixture was rapidly filtered through a glass filter (GF/B). Then the filter was washed by 4ml of ice-cold buffer at two times. The radioactivity associated with the filter was measured by liquid scintillation counting.
In the experiment for competition of specific [^3H]-PGE2 was added at a concentration of 10 μM. The following buffer was used in all reactions.
Buffer: 20 mM Mes (pH 6.0), 1 mM EDTA, 10 mM MgCl2

[2] = tested on: Mesangial Proliferative Glomerulonephritis Model; test: Mesangial proliferative glomerulonephritis model (OX-7 mAb i.v.), urinary protein; assay type: in vivo; settings: 24 h urine 1 day after OX-7, female Wistar rats, Normal 40.8 ± 2.3, Control 127.9 ± 12.6
Method: Methods of Mesangial Proliferative Glomerulonephritis Model
Female Wistar rats, 6 weeks old were purchased from SLC (Shizuoka, Japan). Glomerulosclerosis model was produced by intravenous injections (i.v.) of the monoclonal antibody (mAb), MRC OX-7 (Dainippon Co. Ltd., Osaka, Japan). The 8 weeks old rats were divided into 4 groups (10 rats/group). Group 1 was injected saline instead of OX-7 as a normal group and treated with vehicle (0.5% methylcellulose solution) only. Group 2 was also treated with the vehicle only after the injection of 1 mg/kg OX-7 as a control group. Group 3 and Group 4 were treated with N-benzylsulfonyl-3-{[(1S)-2-(4,5-diphenyloxazol-2-yl)-2-cyclohexen-1-yl]methyl}benzamide (Example 2-75), as shown in the following Table. The compound was orally given every day from 5 days before to one day after i.v. administration of the antibody. Urine was collected for 24 hours from the rats in metabolic cages 1 day after injection of OX-7 and the amount of protein in each sample was determined by the biuret method using bovine serum albumine as the standard. All the rats were sacrificed 2 days after injection of OX-7. Blood biochemical analysis was carried out. [drawing 11]

T1 sequence (P35408 whole entry): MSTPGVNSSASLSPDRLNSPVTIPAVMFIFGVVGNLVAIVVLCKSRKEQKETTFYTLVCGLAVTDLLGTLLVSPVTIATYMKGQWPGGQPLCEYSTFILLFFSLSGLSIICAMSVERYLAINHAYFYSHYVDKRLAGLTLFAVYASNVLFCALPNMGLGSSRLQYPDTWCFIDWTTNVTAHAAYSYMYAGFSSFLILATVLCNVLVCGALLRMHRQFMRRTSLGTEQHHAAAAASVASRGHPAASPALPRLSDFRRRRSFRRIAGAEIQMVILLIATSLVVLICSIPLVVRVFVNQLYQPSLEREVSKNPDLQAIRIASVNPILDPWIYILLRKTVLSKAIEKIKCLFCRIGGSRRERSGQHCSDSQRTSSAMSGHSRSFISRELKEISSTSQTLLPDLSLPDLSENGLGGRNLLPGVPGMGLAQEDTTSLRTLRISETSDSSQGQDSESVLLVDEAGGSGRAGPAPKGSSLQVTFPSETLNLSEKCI

Row | inhibition at 0.1 µM [1] [%] | SMILES | Inhibition (%) [1] | Urinary Protein ([2]; 1 mg/kg orally every day from 5 days before to one day after OX-7) [mg/day] | Urinary Protein ([2]; 10 mg/kg orally every day from 5 days before to one day after OX-7) [mg/day]
1 | – | O=C(NCC(O)c1ccccc1)c1cccc(C[C@@H]2CCC[C@H]2c2nc(-c3ccccc3)c(-c3ccccc3)o2)c1 (stereo partly drawn) [Example 1-47, N-[(2-hydroxy-2-phenyl)ethyl]-3-{[(1S,2R)-2-(4,5-diphenyloxazol-2-yl)-1-cyclopentyl]methyl}benzamide] | ≧80% | – | –
2 | ≥ 80 | O=C(NCC(c1ccccc1)c1ccccc1)c1cccc(C[C@@H]2CCC[C@H]2c2nc(-c3ccccc3)c(-c3ccccc3)o2)c1 [Example 1-50, N-(2,2-diphenylethyl)-3-{[(1S,2R)-2-(4,5-diphenyloxazol-2-yl)-1-cyclopentyl]methyl}benzamide] | – | – | –
3 | ≥ 80 | O=C(NOCc1ccccc1)c1cccc(C[C@@H]2CCCC=C2c2nc(-c3ccccc3)c(-c3ccccc3)o2)c1 [Example 2-46, N-benzyloxy-3-{[(1S)-2-(4,5-diphenyloxazol-2-yl)-2-cyclohexen-1-yl]methyl}benzamide] | – | – | –
4 | ≥ 80 | O=C(NS(=O)(=O)Cc1ccccc1)c1cccc(C[C@@H]2CCCC=C2c2nc(-c3ccccc3)c(-c3ccccc3)o2)c1 [Example 2-75, N-benzylsulfonyl-3-{[(1S)-2-(4,5-diphenyloxazol-2-yl)-2-cyclohexen-1-yl]methyl}benzamide] | – | 98.2 ± 20.9 | 66.4 ± 6.9

— patent US6437146B1, “Oxazole compounds as prostaglandin e2 agonists or antagonists” (Fujisawa Pharmaceutical Co., Ltd., priority 1998, dated 2002)
